Reference: patent US20210246120A1, “METHOD OF PREPARATION AND USE OF PHOSPHOINOSITIDE 3-KINASE INHIBITORS IN TREATING CANCER” (BIOMEDICAL RESEARCH FOUNDATION OF THE ACADEMY OF ATHENS …, priority 2018, published 2021)
Where two headings read alike, the source gives them in different places.

Tests used:
[1] = test system: breast cancer in WAPCre/exon20 Pik3ca*/MMTV-Myc mouse; test: Micro PET/CT imaging and Ki67 immunohistochemistry of breast tumors in WAPCre/exon20 Pik3ca*/MMTV-Myc mouse; assay type: in vivo
Source text: In order to test the in vivo activity of potential anticancer drugs, establishing a corresponding cancer animal model is required. To generate mouse tumors at chosen anatomical sites, a variant of a genetic scheme that is based on Cre/loxP recombination is often used. Depending on the tissue-specificity of the promoter driving Cre expression, corresponding tumors develop in progeny derived from matings between Cre-producer mice and Cre-responder partners carrying a dormant oncogenic transgene, which becomes functional after excision of an upstream-positioned floxed DNA segment that blocks its expression [see Politi et al. Oncogene 23:1558-1565 (2004); Klinakis et al. Proc Natl Acad Sci USA 106:2359-2364 (2009), Stratikopoulos et al. Cancer Cell 27:837-851 (2015)). To develop mouse strains carrying Pik3ca gain of function mutations (hereafter referred to as Pik3ca*), a knock-in gene targeting strategy was followed (Stratikopoulos et al. Cancer Cell 27:837-851 (2015)). Thus, either of the two hotspot mutations of the Pik3ca locus (in exon 20 or in exon 9) was targeted so that the mutated Pik3ca would be expressed from the endogenous locus and not from a transgene, thus, mimicking the expression found in human tumors. Activation of the exon 20 Pik3ca oncogenic mutation was achieved after mating the animals with WAPCre producers (WAP is a milk protein, the promoter of which is used for driving Cre expression, specifically in the mammary gland). Mammary tumors appeared in such animals after a very long latency of 490 days (median). […] These mice were used to test the efficacy of compounds discussed herein.
FIG. 6. Example of micro PET/CT imaging of WAPCre/exon20 Pik3ca*/MMTV-Myc mouse (compared with a negative wild-type control) at the beginning and end of treatment (one month) of breast cancer with the PI3K-010 compound.
PET/CT images of a WAPCre/exon20 Pik3ca*/MMTV-Myc mouse were acquired at the beginning and end of treatment ([…]) of breast cancer with the PI3K-010 compound (cf. FIG. 6). The compound was administered per os (by gavage) at 100 mg/Kg doses. […]

[2] = biological target: T1, mutant PI3Kα H1047R protein (Homo sapiens, UniProt P42336, H1047R); test: In vitro cell-free PI3Kα activity assay using PIP2 containing liposomes (H1047R mutant); assay type: biochemical; conditions: for Inhibition selectivity for mutant PI3Kα H1047R compared to wild-type PI3Kα: ratio of IC50 WT / H1047R; for IC50: logit-log plots, PIP2 liposomes
T1 construct: purchased Millipore
Experimental: PI3Kα activity assays on the identified lead compound and its analogs were performed using PIP2 containing liposomes (Gkeka et al., PLoS Comput Biol 10:e1003895 (2014)). Complexes of PIK3CA (WT or […])/PIK3R1 were obtained from Millipore. The assay was based on a protocol provided by Millipore, with modifications (Papafotika et al., in preparation) which will be further described below. In this assay, PIP3 molecules produced by PI3Kα compete with biotinylated PIP3 for binding with a recombinant GST-GRP1-PH domain (amino acids 263-380), which has been produced in bacteria, bound to glutathione coated 96-well plates. Quantitation of the competed amount of biotin-PIP3 is estimated by the peroxidase activity of streptavidin-HRP that binds to the plate and provides a measure for the activity of the protein. The compounds were preincubated with all the components of the assay mixture, except PIP2, for 10 min, at 25° C. PIP2 is added in the end of the preincubation period, thereby initiating the kinase reaction. IC50 values were calculated from dose-response curves using logit-log plots. All assays were carried out in at least three independent experiments and each concentration in triplicate. PIK-108 and wortmannin were used as controls (Gkeka et al., J Phys Chem B 119:1002-1016 (2015)).
To evaluate the in vitro activity of the compound having the formula (II) (PI3K-010), PI3Kα activity assays were performed using PIP2 containing liposomes (Gkeka et al PLOS Comp Biol 2014). In this assay, PIP3 molecules produced by PI3Kα compete with biotinylated PIP3 for binding to recombinant GST-GRP1-PH domain (amino acids 263-380), which has been produced in bacteria, bound to glutathione coated 96-well plates. Quantitation of the competed amount of biotin-PIP3 is estimated by the peroxidase activity of streptavidin-HRP that binds to the plate and provides a measure for the activity of the protein. The compounds were preincubated with all the components of the assay mixture, except PIP2, for 10 min, at 25° C. […]
(§1) To evaluate the in vitro activity of the compound having the formula (III) (PI3K-010), PI3Kα activity assays were performed using PIP2 containing liposomes (Gkeka et al PLOS Comp Biol 2014). […] Quantitation of the competed amount of biotin-PIP3 is estimated by the peroxidase activity of streptavidin-HRP that binds to the plate and provides a measure for the activity of the protein. […]
as §1, with “(IV) (PI3K-024),” for “(III) (PI3K-010),”

wild type PI3Kα protein = biological target: T2, wild type PI3Kα protein (Homo sapiens, UniProt P42336); test: In vitro cell-free PI3Kα activity assay using PIP2 containing liposomes (wild type); assay type: biochemical
T2 construct: purchased Millipore
T2 sequence (P42336 whole entry): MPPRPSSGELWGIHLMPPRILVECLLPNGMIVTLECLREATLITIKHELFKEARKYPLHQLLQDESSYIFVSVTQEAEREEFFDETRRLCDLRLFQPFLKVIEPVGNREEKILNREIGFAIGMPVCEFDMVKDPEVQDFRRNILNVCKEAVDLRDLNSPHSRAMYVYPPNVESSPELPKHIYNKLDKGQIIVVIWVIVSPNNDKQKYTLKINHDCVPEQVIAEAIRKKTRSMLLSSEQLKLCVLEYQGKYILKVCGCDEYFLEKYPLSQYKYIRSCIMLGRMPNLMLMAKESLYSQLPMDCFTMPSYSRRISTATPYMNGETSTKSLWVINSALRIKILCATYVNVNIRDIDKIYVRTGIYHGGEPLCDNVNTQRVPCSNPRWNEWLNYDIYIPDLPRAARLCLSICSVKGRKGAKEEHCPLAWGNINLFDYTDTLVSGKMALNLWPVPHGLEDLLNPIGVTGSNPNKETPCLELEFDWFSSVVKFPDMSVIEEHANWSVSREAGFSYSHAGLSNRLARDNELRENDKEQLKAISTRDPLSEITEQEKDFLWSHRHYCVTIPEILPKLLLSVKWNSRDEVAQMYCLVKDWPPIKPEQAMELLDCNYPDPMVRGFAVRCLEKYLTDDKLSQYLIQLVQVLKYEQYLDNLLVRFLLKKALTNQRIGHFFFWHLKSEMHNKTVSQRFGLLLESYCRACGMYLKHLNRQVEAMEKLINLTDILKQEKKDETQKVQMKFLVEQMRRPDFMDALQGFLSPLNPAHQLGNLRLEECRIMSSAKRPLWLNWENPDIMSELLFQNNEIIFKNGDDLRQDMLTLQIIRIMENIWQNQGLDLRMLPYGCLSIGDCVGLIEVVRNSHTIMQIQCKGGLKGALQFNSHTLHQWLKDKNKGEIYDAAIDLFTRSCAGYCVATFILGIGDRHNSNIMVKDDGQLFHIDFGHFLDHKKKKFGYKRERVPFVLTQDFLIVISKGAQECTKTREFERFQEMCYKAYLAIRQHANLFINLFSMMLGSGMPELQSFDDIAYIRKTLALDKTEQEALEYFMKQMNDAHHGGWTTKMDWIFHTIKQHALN
T2 sequence (P27986 whole entry partner): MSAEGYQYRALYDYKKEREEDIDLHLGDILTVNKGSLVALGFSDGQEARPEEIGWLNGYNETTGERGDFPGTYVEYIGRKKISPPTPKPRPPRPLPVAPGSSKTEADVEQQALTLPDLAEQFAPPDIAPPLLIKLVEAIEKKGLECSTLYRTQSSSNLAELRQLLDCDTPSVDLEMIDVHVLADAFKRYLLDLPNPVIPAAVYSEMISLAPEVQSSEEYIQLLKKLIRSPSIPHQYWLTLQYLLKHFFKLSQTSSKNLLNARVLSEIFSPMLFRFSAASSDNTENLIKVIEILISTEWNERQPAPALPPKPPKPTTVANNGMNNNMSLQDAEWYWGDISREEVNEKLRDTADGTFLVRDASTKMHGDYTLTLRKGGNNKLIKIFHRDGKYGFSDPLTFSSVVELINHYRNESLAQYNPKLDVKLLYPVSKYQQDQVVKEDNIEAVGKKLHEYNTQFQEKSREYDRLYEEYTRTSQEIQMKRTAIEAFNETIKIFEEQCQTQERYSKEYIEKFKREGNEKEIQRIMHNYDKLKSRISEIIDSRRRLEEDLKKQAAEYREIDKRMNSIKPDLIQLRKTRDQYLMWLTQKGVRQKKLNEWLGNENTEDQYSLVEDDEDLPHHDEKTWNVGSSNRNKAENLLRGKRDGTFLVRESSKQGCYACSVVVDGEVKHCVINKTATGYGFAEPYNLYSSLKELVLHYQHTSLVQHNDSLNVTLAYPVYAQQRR

T1 sequence (P42336 whole entry H1047R): as the sequence (P42336 whole entry) above, with H1047R counted along it
T1 sequence (P27986 whole entry partner): as the sequence (P27986 whole entry partner) above

| Inhibition selectivity for mutant PI3Kα H1047R compared to wild-type PI3Kα [2] [fold] | IC50 (wild type PI3Kα protein; extrapolated, very low inhibition at the highest tested concentrations, read-out: IC50 for the WT PI3Kα, estimated by extrapolation) [µM] | IC50 ([2]; read-out: IC50 for the mutant H1047R PI3Kα) [µM] | IC50 (wild type PI3Kα protein; logit-log plots, 100 μM ATP, PIP2 liposomes, read-out: IC50 against WT PI3Kα) [µM] | IC50 ([2]; 100 μM ATP, read-out: IC50 against mutant H1047R PI3Kα) [µM] | SMILES | Proliferation index (Ki67 immunohistochemistry) after treatment ([1]; 100 mg/Kg per os by gavage, surgically removed breast tumors, controls 69.9+5.1%) | Uptake of 18F-FDG by remnants of breast cancer (PET/CT) ([1]; 100 mg/Kg per os, beginning vs end of treatment (two weeks)) | Immunohistochemical analysis: tumor necrosis after treatment ([1]; 100 mg/Kg per os, in comparison with the controls) |
| --- | --- | --- | --- | --- | --- | --- | --- | --- |
| 11 | – | – | – | – | c1cc(CSc2nc3ccccc3[nH]2)nc(CSc2nc3ccccc3[nH]2)c1 [PI3K-010, 2,6-bis(((1H-benzo[d]imidazol-2-yl)thio)methyl)pyridine] | 15.0+3.3% | diminished uptake | tumor necrosis |
| > 100 | > 1000 | 13.5 | – | – | O=C(NCc1ccccc1)c1cccc(C(=O)NCc2ccccc2)n1 [PI3K-021, N^2,N^6-dibenzylpyridine-2,6-dicarboxamide] | – | – | – |
| – | – | – | 0.006 | 0.064 | O=C(Nc1cccc(O)c1)c1cccc(C(=O)Nc2cccc(O)c2)n1 [PI3K-024, N^2,N^6-bis(3-hydroxyphenyl)pyridine-2,6-dicarboxamide] | – | – | – |
